Data as given in patent US20110224079A1, “SPIROHETEROCYCLIC N-OXYAMIDES AS PESTICIDES” (SYNGENTA CROP PROTECTION LLC, priority 2008, published 2011).

Legend:
pepper plants = conditions: in vivo
Protocol: (§1) Comparison of the Insecticidal Activity and Crop Compatibility of Compounds According to the Invention with a Compound from the State of the Art (Compound No. A18 Described on Page 97 of WO09/049,851)
(§2) (Mixed Population, Drench Application in Field Soil, Persistence, Plant Damage Evaluation)
(§3) Samples are assessed 7 days after infestation on mortality. Treated plants are re-infested 7, 14, 21 and 28 days after application. Evaluation is always done 7 days after infestation. Plants are also checked for damage (phytotoxicity), visual assessment being made using a 0-100% rating scale (100%=total damage to plant; 0%=no damage to plant).

[1] = system: Myzus persicae (green peach aphid); test: Example B15: drench activity (death rate, persistence) against Myzus persicae on pepper plants in field soil, comparison with A18; format: in vivo; conditions: for Mortality (%) xx days after application (drench, systemic action, persistence): 12.5 ppm drench, pepper plants in field soil, evaluation 7 days after infestation; for insecticidal action on Myzus persicae compared with state-of-the-art compound A18 (in words): drench application on pepper plants, summary of Table B15
Protocol: as §1, §2, §3

[2] = system: Nilaparvata lugens (brown rice planthopper); test: Example B8: activity against Nilaparvata lugens, sprayed rice seedlings (larvicide, feeding/contact); conditions: in Oryza sativa, read-out: activity (mortality, growth regulation, effects on F1 generation)
[3] = system: Aphis Craccivora (cowpea aphid); test: Example B11: translaminar activity against Aphis craccivora on French bean leaves; format: in vivo; conditions: 120 h, upper leaf side painted, aphids on lower side, 5 days
Protocol: Translaminar Activity Against Aphis Craccivora (Cowpea Aphid)
French bean leaves (Phaseolus vulgaris) are infested with about 20 mixed age individuals on the lower leaf side using clip cages. 1 day after the infestation, the upper side of the leaves is treated with the test solution by painting. 5 days later, samples are checked for mortality.

[4] = system: Myzus persicae (green peach aphid); test: Example B17: activity against Myzus persicae on sprayed pepper plants (feeding/residual contact); format: in vivo; conditions: 144 h, infested pepper plants sprayed, 6 days
[5] = system: Myzus persicae (green peach aphid); test: Example B1: activity against Myzus persicae, sprayed sunflower leaf discs (feeding/residual contact, preventive); conditions: foliar, 144 h, read-out: activity (mortality)
[6] = system: Bemisia tabaci (tobacco white fly); test: Example B7: activity against Bemisia tabaci, sprayed bean plants (larvicide, contact/feeding); format: in vivo; conditions: 504 h, bean plants with N-2 nymphs sprayed, three weeks, read-out: activity (efficacy, number of emerged adults)
Outline: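 After a 4-day egg-laying period and 7 further days, bean plants bearing hatched N-2 nymphs were sprayed with test solutions (2 replicates). Emerged adults were counted three weeks later; efficacy was derived by comparison with untreated samples.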

[7] = system: Myzus persicae (green peach aphid); test: Example B13: drench activity against Myzus persicae, pea seedlings in field soil; conditions: 168 h, read-out: drench activity (mortality)
[8] = system: Aonidiella Aurantii (red scale); test: Example B12: activity against Aonidiella aurantii, dipped potato tubers; format: in vivo; conditions: 6-8 weeks after application, read-out: activity (number of crawlers of the next generation)
From the text: Activity Against Aonidiella Aurantii (Red Scale)
Treatment of potato tubers by dipping the in the test solution. One day later, tubers are infested with about 50 crawlers. 6-8 weeks after application samples are checked for the number of crawlers of the next generation (compared to the non treated samples).

[9] = system: Plutella xylostella (diamond back moth); test: Example B5: activity against Plutella xylostella, artificial diet in microtiter plate (larvicide, preventive); format: in vivo; conditions: 120 h, L2 larvae, 5 days, read-out: activity (larval mortality, antifeedant, growth regulation)
Protocol: Activity Against Plutella xylostella (Diamond Back Moth)
(Larvicide, Feeding/Residual Contact Activity, Preventive)
24-well microtiter plate (MTP) with artificial diet is treated with test solutions by pipetting. After drying, the MTP's are infested with larvae (L2)(10-15 per well). After an incubation period of 5 days, samples are checked for larval mortality, antifeedant and growth regulation.

[10] = system: Myzus persicae (green peach aphid); test: Example B2: activity against Myzus persicae, pea seedling roots in test solution (systemic/feeding, curative); conditions: 144 h, read-out: activity (mortality)
[11] = system: Aphis Craccivora (cowpea aphid); test: Example B9: activity against Aphis craccivora, sprayed pea seedlings (contact/feeding); format: in vivo; conditions: 144 h, infested pea seedlings sprayed, 6 days
From the text: (§4) Activity Against Aphis Craccivora (Cowpea Aphid)
(Mixed Population, Contact/Feeding)
6 days after treatment, samples are checked for mortality.

[12] = system: Tetranychus urticae (two-spotted spider mite); test: Example B4: activity against Tetranychus urticae, sprayed bean leaf discs (feeding/residual contact, preventive); conditions: foliar, 192 h, read-out: activity (egg, larval and adult mortality)
[13] = system: Thrips tabaci (onion thrips); test: Example B3: activity against Thrips tabaci, sprayed sunflower leaf discs (feeding/residual contact, preventive); format: in vivo; conditions: foliar, 144 h, mixed population, 6 days
From the text: Activity Against Thrips tabaci (Onion Thrips)
(Mixed Population, Feeding/Residual Contact Activity, Preventive)

[14] = system: Aphis Craccivora (cowpea aphid); test: Example B10: activity against Aphis craccivora, pea seedling roots in test solution (systemic/feeding); format: in vivo; conditions: 144 h, roots of infested pea seedlings in test solution, 6 days
From the text: as §4
(Mixed Population, Systemic/Feeding)

[15] = system: Frankliniella occidentalis (western flower thrips); test: Example B6: activity against Frankliniella occidentalis, bean leaf discs or bean plants; format: in vivo; conditions: foliar, 6 days (leaf discs) or 14 days (plants) after infestation, read-out: activity (reduction of treated population)
Protocol: Activity Against Frankliniella occidentalis (Western Flower Thrips)
Bean leaf discs on agar in petri dishes or bean plants in a spray chamber are treated with diluted test solutions. After drying leaf discs are cut and placed in plastic cups on the surface of an agar layer and infested with mixed population. 6 days (leaf discs) or 14 days (plants) after the infestation, samples are checked for reduction of treated population and compared to the non treated population.

[16] = system: Aphis Craccivora (cowpea aphid); test: Example B16: activity against Aphis craccivora on broad bean plants, adjuvant effect, curative (EC050 spray); format: in vivo; conditions: 3 ppm, adjuvant (if any) 0.1% (v/v), 7 days after treatment
Protocol: One day after infestation, plants are treated with diluted test solutions of the compound formulated as EC050 in a spray chamber (4 replicates). Optionally, an adjuvant is added with 0.1% (v/v) to the spray solution. 7 days after treatment samples are checked for mortality. Efficacy was calculated with the aid of Abbott's formula.

[17] = system: cowpea aphid (Aphis craccivora); test: Example B14: insecticide seed treatment of sugarbeet seeds, infestation with cowpea aphid; format: in vivo; conditions: 0.3 mg a.i./seed, infested after 14 days, counted 7 days later
Protocol: Insecticide Seed Treatment
Sugarbeet seeds are treated with test compounds at various rates (mg a.i./seed). The seeds are sown into pots filled with soil. After placing the seeds on the soil surface they are further covered with soil. Before and during the bioassays, the plants are grown under optimal greenhouse conditions. After 14 days, the plants are infested with cowpea aphid (Aphis craccivora) by placing one infested pea seedling containing approximately 150 aphids of a population of mixed developmental stages onto each plant. Seven days after infestation, the number of aphids is counted per plant. Each treatment group is replicated 10 times. Each replicate contains 1 plant.

[18] = infestation 0 days after application
[19] = re-infestation 7 days after application
[20] = re-infestation 14 days after application
[21] = re-infestation 21 days after application
[22] = re-infestation 28 days after application

Structure (SMILES)	plant damage on pepper plants / plant compatibility (in words) (pepper plants)	Mortality (%) xx days after application (drench, systemic action, persistence) [1, 18]	Mortality (%) xx days after application (drench, systemic action, persistence) [1, 19]	Mortality (%) xx days after application (drench, systemic action, persistence) [1, 20]	Mortality (%) xx days after application (drench, systemic action, persistence) [1, 21]	Mortality (%) xx days after application (drench, systemic action, persistence) [1, 22]	mortality at 400 ppm [2]	mortality at 400 ppm [3]	mortality at 200 ppm [4]	mortality at 400 ppm [5]	pest or weed control at 200 ppm [6]	mortality at 25 ppm [7]	pest or weed control at 200 ppm [8]	mortality at 400 ppm [9]	mortality at 400 ppm [10]	mortality at 400 ppm [11]	mortality at 400 ppm [12]	mortality at 400 ppm [13]	mortality at 400 ppm [14]	pest or weed control at 400 ppm [15]	further results
CCOC(=O)OC1=C(c2c(C)cc(C)cc2C)C(=O)NC12CCN(OC)CC2 [A18, reference compound]	damages these to an untolerable high extend	100%	100%	98%	95%	95%															
CCOC(=O)OC1=C(c2c(C)cc(C)cc2C)C(=O)N(OCOC)C12CCN(OC)CC2 [P1.7, carbonic acid ethyl ester 8-methoxy-1-methoxymethoxy-2-oxo-3-(2,4,6-trimethyl-phenyl)-1,8-diaza-spiro[4.5]dec-3-en-4-yl ester]	no plant damage at all	99%	100%	98%	98%	97%	> 80%	> 80%	≥ 80%	> 80%	> 80%	> 80%	> 80%	> 80%	> 80%						insecticidal action on Myzus persicae compared with state-of-the-art compound A18 (in words) [1]: very similar to the action of the compound of the state of the art
CCOC(=O)OC1=C(c2c(C)cc(C)cc2C)C(=O)N(OC)C12CCN(OC)CC2 [P1.8]							> 80%	> 80%	≥ 80%	> 80%	> 80%	> 80%	> 80%	> 80%	> 80%	> 80%	> 80%	> 80%	> 80%		
CCOC(=O)OC1=C(c2c(C)cc(C)cc2C)C(=O)N(OC2CCCO2)C12CCN(OC)CC2 (stereo not drawn) [P1.9, Carbonic acid ethyl ester 8-methoxy-2-oxo-1-(tetrahydro-furan-2-yloxy)-3-(2,4,6-trimethyl-phenyl)-1,8-diaza-spiro[4.5]dec-3-en-4-yl ester]							> 80%	> 80%	≥ 80%	> 80%	> 80%	> 80%	> 80%	> 80%	> 80%		> 80%	> 80%	> 80%	> 80%	
CCOC(=O)OC1=C(c2c(C)cc(C)cc2C)C(=O)N(O)C12CCN(OC)CC2 [P1.11, carbonic acid ethyl ester 1-hydroxy-8-methoxy-2-oxo-3-(2,4,6-trimethyl-phenyl)-1,8-diaza-spiro[4.5]dec-3-en-4-yl ester]	no plant damage at all	97%	95%	95%	100%	100%	> 80%		≥ 80%	> 80%	> 80%	> 80%	> 80%	> 80%	> 80%		> 80%	> 80%	> 80%		insecticidal action on Myzus persicae compared with state-of-the-art compound A18 (in words) [1]: very similar to the action of the compound of the state of the art
CCOC(=O)OC1=C(c2c(C)cc(C)cc2C)C(=O)N(OCC)C12CCN(OC)CC2 [P1.15]							> 80%	> 80%	≥ 80%	> 80%	> 80%	> 80%	> 80%		> 80%	> 80%	> 80%		> 80%	> 80%	Abbott's efficacy (%) against Aphis craccivora ([16]; Table B16a): 3%; Abbott's efficacy (%) against Aphis craccivora ([16]; Table B16b): 11%
COCON1C(=O)C(c2cc(C)ccc2C)=C(O)C12CCN(OC)CC2 [P2.2, 3-(2,5-dimethyl-phenyl)-4-hydroxy-8-methoxy-1-methoxymethoxy-1,8-diaza-spiro[4.5]dec-3-en-2-one]							> 80%	> 80%	≥ 80%	> 80%	> 80%	> 80%		> 80%	> 80%						efficacy in the reduction of aphids compared to the untreated control plants [17]: 60%
COCON1C(=O)C(c2c(C)cc(C)cc2C)=C(O)C12CCN(OC)CC2 [P2.6, 4-hydroxy-8-methoxy-1-methoxymethoxy-3-(2,4,6-trimethyl-phenyl)-1,8-diaza-spiro[4.5]dec-3-en-2-one]							> 80%	> 80%	≥ 80%	> 80%	> 80%	> 80%	> 80%	> 80%	> 80%	> 80%		> 80%	> 80%	> 80%	
